Reference: article PMC10609904 (Pharmaceuticals, 2023)
Where two headings read alike, the source gives them in different places.

Assays:
[1] = target: T1, acetylcholinesterase (AChE) (Electrophorus electricus, UniProt O42275); assay: biochemical
T1 construct: purchased Sigma Aldrich
Protocol: The anti-Alzheimer impact was assessed in vitro utilizing the key enzyme acetylcholinesterase inhibition assay, as described in an earlier study. In detail, 120 μL of phosphate buffer, 60 μL of tested sample, and 60 μL of enzymatic solution (0.5 mM) were mixed and incubated for fifteen minutes at 25 °C in a 96-well plate. This was followed by the addition of 30 μL of 5,5′-dithiobis-2-nitrobenzoic acid (0.003 M) and 40 μL of acetylthiocholine iodide (0.002 M). The reaction mixture was kept in an incubator at 25 °C for ten minutes. The absorbance of the solution was measured at 415 nm. Berberine chloride was used as a standard inhibitor of the enzyme.
(§1) All chemical assays were conducted in triplicate. […] The IC50 value (half-maximal inhibitory concentration of samples) was determined via a standard equation constructed by the inhibitory activity (%) and the respective concentration of the tested sample.

[2] = DPPH radical scavenging assay
Protocol: (§2) The DPPH radical scavenging assay and the ABTS assay were used to assess anti-oxidant activity, as previously described in detail by Nguyen et al.. In a 96-well plate, 100 μL of samples (at various concentrations) or distilled water (blank sample) were combined with 25 μL of 0.75 mM DPPH solution (dissolved in methanol). After that, the plates were kept in complete darkness for 30 min. Subsequently, the absorbance was determined at a wavelength of 517 nm. For the ABTS radical-scavenging activity assay, test samples (at various concentrations) were mixed with pre-diluted ABTS solution (reaching an optical density of 0.7). The reaction was allowed to occur for 10 min at room temperature. The absorbance was measured at 734 nm. Ascorbic acid was used as positive control.
as §1

[3] = ABTS radical-scavenging activity assay
Protocol: as §2, §1

T1 sequence (O42275 24-633): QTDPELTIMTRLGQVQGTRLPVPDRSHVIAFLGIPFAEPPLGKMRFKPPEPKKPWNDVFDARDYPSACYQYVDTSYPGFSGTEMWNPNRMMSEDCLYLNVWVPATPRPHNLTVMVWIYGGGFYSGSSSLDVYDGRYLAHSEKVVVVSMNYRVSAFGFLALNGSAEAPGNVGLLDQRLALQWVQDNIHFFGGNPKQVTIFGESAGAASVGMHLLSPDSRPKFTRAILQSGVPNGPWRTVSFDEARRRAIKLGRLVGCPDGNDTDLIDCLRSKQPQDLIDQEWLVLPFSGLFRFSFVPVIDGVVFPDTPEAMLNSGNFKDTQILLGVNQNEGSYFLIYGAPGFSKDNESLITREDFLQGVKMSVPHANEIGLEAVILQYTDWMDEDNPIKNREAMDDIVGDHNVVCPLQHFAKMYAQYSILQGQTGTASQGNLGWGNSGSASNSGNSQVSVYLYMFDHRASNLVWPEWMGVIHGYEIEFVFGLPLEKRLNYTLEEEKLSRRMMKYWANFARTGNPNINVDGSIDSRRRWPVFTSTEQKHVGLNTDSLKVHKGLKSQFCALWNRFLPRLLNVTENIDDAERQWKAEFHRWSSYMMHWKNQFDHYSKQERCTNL

Work on `COc1ccc2cc3[n+](cc2c1OC)CCc1cc2c(cc1-3)OCO2` [compound 37, Berberine chloride] yielded an IC50 [1] of 895 µM.
Compound `O=C(O)c1ccccc1O` [compound 8, Salicylic acid] has an IC50 [1] of 405 µM.
In the case of `COc1cc(O)c2c(c1)oc(=O)c1c3cc(O)c(O)cc3oc21` [compound 1, Wedelolactone], the IC50 ([1]; read-out: AChE IC50 (converted)) is reported as 195 µM.
For `O=C1O[C@H]([C@@H](O)CO)C(O)=C1O` [Vitamin C, Ascorbic acid], the “DPPH IC50” value [2] was 38.4 ± 0.5 µg/mL and the “ABTS IC50” value [3] was 23.0 ± 0.4 µg/mL.
